These are literature values, as cited in patent US20250152537A1, “COMPOSITIONS AND METHODS FOR THE TREATMENT OF HUMAN IMMUNODEFICIENCY VIRUS” (PROTHIONE LLC, priority 2022, published 2025).

For this data set the following is noted: not told.

On to `N[C@@H](CCC(=O)N[C@@H](CS)C(=O)NCC(=O)O)C(=O)O` [GSH, glutathione], for which the membrane permeability entry is recorded as “membrane-impermeable”.
